Test results: PubChem BioAssay (NCI)
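How tested: cells in 96-well plates exposed to compound for 48 hours at five concentrations. The concentration for 50% growth inhibition is given as GI50. TGI: total growth inhibition.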

How the values were obtained:
Assay in all cases: NCI-60 cell line screen, 48 h
M14 melanoma = system: M14 melanoma
LOX IMVI melanoma = system: LOX IMVI melanoma
HCT-15 colon = system: HCT-15 colon
RXF 393 renal = system: RXF 393 renal
MALME-3M melanoma = system: MALME-3M melanoma
MOLT-4 leukemia = system: MOLT-4 leukemia
ACHN renal = system: ACHN renal
SK-MEL-5 melanoma = system: SK-MEL-5 melanoma
HCT-116 colon = system: HCT-116 colon
NCI-H522 lung = system: NCI-H522 lung
PC-3 prostate = system: PC-3 prostate
T-47D breast = system: T-47D breast
MCF7 breast = system: MCF7 breast

## CCN(CC)CC(C)(C)C(=O)/C=C/c1ccc(C)cc1
M14 melanoma
  TGI: 25 µM
LOX IMVI melanoma
  TGI: 24.1 µM
HCT-15 colon
  TGI: 14.8 µM
RXF 393 renal
  TGI: 21.6 µM
MALME-3M melanoma
  TGI: 21.7 µM
MOLT-4 leukemia
  TGI: 39.9 µM
ACHN renal
  TGI: 27.9 µM
SK-MEL-5 melanoma
  TGI: 29.1 µM
HCT-116 colon
  TGI: 27.4 µM
NCI-H522 lung
  TGI: 8.93 µM

## Clc1ccc2c(NCCNc3nc(-c4ccccc4)cc(-c4ccccc4)n3)ccnc2c1
PC-3 prostate
  GI50: 1.88 µM
  TGI: 3.44 µM
M14 melanoma
  GI50: 1.71 µM
  TGI: 3.16 µM
T-47D breast
  GI50: 1.5 µM
  TGI: 3.47 µM
ACHN renal
  GI50: 1.7 µM
  TGI: 3.1 µM
SK-MEL-5 melanoma
  GI50: 1.79 µM
  TGI: 3.2 µM
HCT-116 colon
  GI50: 1.76 µM
  TGI: 3.43 µM
NCI-H522 lung
  GI50: 1.87 µM
  TGI: 3.76 µM

## COc1cccc(/C=N/n2c(-c3ccccc3)n[nH]c2=O)c1
PC-3 prostate
  TGI: > 100 µM
M14 melanoma
  TGI: > 100 µM
HCT-15 colon
  TGI: > 100 µM
MALME-3M melanoma
  TGI: > 100 µM
T-47D breast
  TGI: > 100 µM
MOLT-4 leukemia
  TGI: > 100 µM
MCF7 breast
  TGI: > 100 µM
ACHN renal
  TGI: > 100 µM
HCT-116 colon
  TGI: > 100 µM

## CC(=O)OCCn1c(Cc2ccc([N+](=O)[O-])cc2)nn(C(C)=O)c1=O
PC-3 prostate
  TGI: > 100 µM
M14 melanoma
  TGI: > 100 µM
LOX IMVI melanoma
  TGI: > 100 µM
HCT-15 colon
  TGI: > 100 µM
MALME-3M melanoma
  TGI: > 100 µM
T-47D breast
  TGI: > 100 µM
MOLT-4 leukemia
  TGI: > 100 µM
MCF7 breast
  TGI: > 100 µM
ACHN renal
  TGI: > 100 µM
SK-MEL-5 melanoma
  TGI: > 100 µM
HCT-116 colon
  TGI: > 100 µM
NCI-H522 lung
  TGI: > 100 µM

## COC(CNC(=O)C(C)NC(=O)C(C)NC(=O)c1ccccc1)OC (configuration not stated)
PC-3 prostate
  TGI: > 100 µM
M14 melanoma
  TGI: > 100 µM
HCT-15 colon
  TGI: > 100 µM
RXF 393 renal
  TGI: > 100 µM
MALME-3M melanoma
  TGI: > 100 µM
T-47D breast
  TGI: > 100 µM
MOLT-4 leukemia
  TGI: > 100 µM
MCF7 breast
  TGI: > 100 µM
ACHN renal
  TGI: > 100 µM
SK-MEL-5 melanoma
  TGI: > 100 µM
HCT-116 colon
  TGI: > 100 µM
NCI-H522 lung
  TGI: > 100 µM

## CCNC1CC(C(C)(C)NCC)CC=C1C (configuration not stated)
PC-3 prostate
  TGI: > 100 µM
M14 melanoma
  TGI: > 100 µM
LOX IMVI melanoma
  TGI: > 100 µM
HCT-15 colon
  TGI: > 100 µM
T-47D breast
  TGI: > 100 µM
MOLT-4 leukemia
  TGI: > 100 µM
MCF7 breast
  TGI: > 100 µM
SK-MEL-5 melanoma
  TGI: > 100 µM
HCT-116 colon
  TGI: > 100 µM
NCI-H522 lung
  TGI: > 100 µM

## C[n+]1c2ccccc2c(NC(CCC(N)=O)C(=O)O)c2ccccc21 (configuration not stated)
M14 melanoma
  TGI: > 100 µM
HCT-15 colon
  TGI: > 100 µM
RXF 393 renal
  TGI: > 100 µM
MALME-3M melanoma
  TGI: > 100 µM
MOLT-4 leukemia
  TGI: > 100 µM
ACHN renal
  TGI: > 100 µM
SK-MEL-5 melanoma
  TGI: > 100 µM
HCT-116 colon
  TGI: > 100 µM
NCI-H522 lung
  TGI: > 100 µM

## Nc1nc(Cl)cc(Nc2ccc3c(c2)CCC3)n1
PC-3 prostate
  TGI: > 100 µM
M14 melanoma
  TGI: > 100 µM
LOX IMVI melanoma
  TGI: > 100 µM
HCT-15 colon
  TGI: > 100 µM
MALME-3M melanoma
  TGI: > 100 µM
T-47D breast
  TGI: > 100 µM
MOLT-4 leukemia
  TGI: 84.7 µM
MCF7 breast
  TGI: > 100 µM
ACHN renal
  TGI: > 100 µM
SK-MEL-5 melanoma
  TGI: > 100 µM
HCT-116 colon
  TGI: > 100 µM
NCI-H522 lung
  TGI: > 100 µM

## OCCOCCO[P+]1(OCCOCCO)n2c3ccc2C(c2ccccc2)=C2C=CC(=N2)C(c2ccccc2)=c2ccc(n21)=C(c1ccccc1)C1=NC(=C3c2ccccc2)C=C1
PC-3 prostate
  TGI: 1.2 µM
M14 melanoma
  TGI: 1.38 µM
LOX IMVI melanoma
  TGI: 0.952 µM
HCT-15 colon
  TGI: 3.21 µM
MALME-3M melanoma
  TGI: 0.706 µM
T-47D breast
  TGI: 2.04 µM
MOLT-4 leukemia
  TGI: 0.189 µM
MCF7 breast
  TGI: 1.55 µM
ACHN renal
  TGI: 1.05 µM
SK-MEL-5 melanoma
  TGI: 0.134 µM
HCT-116 colon
  TGI: 0.358 µM
NCI-H522 lung
  TGI: 0.448 µM

## CCOC(=O)c1sc2nc(SC)nc(Nc3ccc(OC)c(OC)c3)c2c1N
PC-3 prostate
  TGI: > 100 µM
M14 melanoma
  TGI: > 100 µM
LOX IMVI melanoma
  TGI: > 100 µM
HCT-15 colon
  TGI: > 100 µM
RXF 393 renal
  TGI: 8.97 µM
MALME-3M melanoma
  TGI: > 100 µM
T-47D breast
  TGI: > 100 µM
MCF7 breast
  TGI: > 100 µM
ACHN renal
  TGI: > 100 µM
SK-MEL-5 melanoma
  TGI: > 100 µM
HCT-116 colon
  TGI: > 100 µM
NCI-H522 lung
  TGI: > 100 µM
